Source: patent EP0148283A1, “Novel penicillanic acid derivatives” (F. HOFFMANN-LA ROCHE & CO. Aktiengesellschaft, priority 1983, dated 1985)
≈ marks a conversion by molar mass, not a printed value. Read-outs that look alike come from different tables or passages of the source.

Experiments:
Assay in all cases: In vitro antibacterial activity, MIC by broth dilution in 96-well trays
Assay type in all cases: cell-based
[1] = test system: E. aerogenes; conditions: Klebsiella aerogenes
Experimental: (§1) The in vitro antibacterial activity of the following compounds:
(§2) The diluted agents are dispensed in 100 µl amounts into the wells of a 96-well tray and used immediately or frozen at -10 to -70°C until needed. Using an automated inoculator, 1.5 µl of a 10^-2 dilution of an overnight culture is added to each well of the tray. The tops of the trays are then sealed using transparent tape and incubated overnight at 37°C. The trays are examined with the aid of a viewer. The lowest concentration at which no growth is observed is considered to be the minimum inhibitory concentration (MIC). [formula] [formula] [formula] [formula] [formula] [formula] [formula] [formula] [formula] [formula] [formula]

[2] = test system: P. rettgeri; conditions: Providencia rettgeri, ATCC9250; P. rettgeri strain ATCC 9250
Experimental: as §1, §2

[3] = test system: K. pneumoniae; conditions: Klebsiella pneumoniae
Experimental: as §1, §2

[4] = test system: E. coli; conditions: Escherichia coli
Experimental: as §1, §2

[5] = test system: P. mirabilis; conditions: Proteus mirabilis
Experimental: as §1, §2

[6] = test system: E. cloacae; conditions: Enterobacter cloacae
Experimental: as §1, §2

[7] = test system: C. freundii; conditions: Citrobacter freundii
Experimental: as §1, §2

[8] = test system: S. schottmuelleri
Experimental: as §1, §2

[9] = test system: P. vulgaris; conditions: Proteus vulgaris
Experimental: as §1, §2

[10] = test system: S. marcescens
Experimental: as §1, §2

[11] = test system: C. diversus; conditions: Citrobacter koseri; C. diversus strain CDC 1663-72
Experimental: as §1, §2

[12] = test system: S. typhi P58A; conditions: Salmonella enterica
Experimental: as §1, §2

CC1(C)S[C@@H]2[C@H](/N=C/N3CCCCCC3)C(=O)N2[C@H]1C(=O)O [Amdinocillin]
MIC [1]: 128 mg/L (≈ 393 µM)
MIC ([1]; E. aerogenes strain 83, read-out: MIC): 8 mg/L (≈ 24.6 µM)
MIC ([1]; E. aerogenes strain 503-478, read-out: MIC): 4 mg/L (≈ 12.3 µM)
MIC [2]: 0.125 mg/L (≈ 0.384 µM)
MIC ([3]; K. pneumoniae strain 35): 0.125 mg/L (≈ 0.384 µM)
MIC ([3]; K. pneumoniae strain 503-964): 0.125 mg/L (≈ 0.384 µM)
MIC ([3]; K. pneumoniae strain 503-994, read-out: MIC): 0.062 mg/L (≈ 0.191 µM)
MIC ([3]; K. pneumoniae strain 4964, read-out: MIC): 64 mg/L (≈ 197 µM)
MIC ([3]; K. pneumoniae strain 5096): 128 mg/L (≈ 393 µM)
MIC ([3]; K. pneumoniae strain 8357, read-out: MIC): 0.25 mg/L (≈ 0.768 µM)
MIC ([3]; K. pneumoniae strain A, read-out: MIC): 0.031 mg/L (≈ 0.0953 µM)
MIC ([3]; K. pneumoniae strain HE7, read-out: MIC): > 128 mg/L
MIC ([4]; E. coli strain 4): 0.062 mg/L (≈ 0.191 µM)
MIC ([4]; E. coli strain 48): 0.062 mg/L (≈ 0.191 µM)
MIC ([4]; E. coli strain 257): 0.125 mg/L (≈ 0.384 µM)
MIC ([4]; E. coli strain 387-1): 0.031 mg/L (≈ 0.0953 µM)
MIC ([4]; E. coli strain 503-455): 2 mg/L (≈ 6.15 µM)
MIC ([4]; E. coli strain 5152): 8 mg/L (≈ 24.6 µM)
MIC ([4]; E. coli strain R-563): 0.125 mg/L (≈ 0.384 µM)
MIC [5]: 0.125 mg/L (≈ 0.384 µM)
MIC ([5]; P. mirabilis strain 2, read-out: MIC): 0.25 mg/L (≈ 0.768 µM)
MIC ([5]; P. mirabilis strain 90, read-out: MIC): 0.25 mg/L (≈ 0.768 µM)
MIC ([5]; P. mirabilis strain 503-1136, read-out: MIC): 2 mg/L (≈ 6.15 µM)
MIC ([5]; P. mirabilis strain 620A, read-out: MIC): 64 mg/L (≈ 197 µM)
MIC ([6]; E. cloacae strain 24): 0.125 mg/L (≈ 0.384 µM)
MIC ([6]; E. cloacae strain 214): 0.125 mg/L (≈ 0.384 µM)
MIC ([6]; E. cloacae strain 5699): 0.25 mg/L (≈ 0.768 µM)
MIC ([6]; E. cloacae strain 6951): 16 mg/L (≈ 49.2 µM)
MIC ([6]; E. cloacae strain 9295): 0.25 mg/L (≈ 0.768 µM)
MIC ([6]; E. cloacae strain 9570A): 0.125 mg/L (≈ 0.384 µM)
MIC ([6]; E. cloacae strain P99): 0.062 mg/L (≈ 0.191 µM)
MIC ([7]; C. freundii strain CDC6): 0.125 mg/L (≈ 0.384 µM)
MIC ([7]; C. freundii strain 8ASM, read-out: MIC): 0.062 mg/L (≈ 0.191 µM)
MIC [8]: 0.062 mg/L (≈ 0.191 µM)
MIC ([9]; ATCC6380, P. vulgaris strain ATCC 6380): 0.031 mg/L (≈ 0.0953 µM)
MIC ([9]; P. vulgaris strain 100): 0.5 mg/L (≈ 1.54 µM)
MIC ([9]; P. vulgaris strain 101): 64 mg/L (≈ 197 µM)
MIC ([10]; S. marcescens strain S3): 0.125 mg/L (≈ 0.384 µM)
MIC ([10]; S. marcescens strain S147): 0.125 mg/L (≈ 0.384 µM)
MIC ([10]; Serratia marcescens): 0.125 mg/L (≈ 0.384 µM)
MIC ([10]; Serratia marcescens, S. marcescens strain 5805, read-out: MIC): 1 mg/L (≈ 3.07 µM)
MIC ([10]; Serratia marcescens, S. marcescens strain S1, read-out: MIC): 0.25 mg/L (≈ 0.768 µM)
MIC ([10]; Serratia marcescens, S. marcescens strain S2, read-out: MIC): 0.25 mg/L (≈ 0.768 µM)
MIC ([10]; Serratia marcescens, S. marcescens strain S4, read-out: MIC): 1 mg/L (≈ 3.07 µM)
MIC ([10]; Serratia marcescens, S. marcescens strain S5, read-out: MIC): 1 mg/L (≈ 3.07 µM)
MIC ([10]; Serratia marcescens, S. marcescens strain S714, read-out: MIC): 0.5 mg/L (≈ 1.54 µM)
MIC [11]: 0.062 mg/L (≈ 0.191 µM)
MIC [12]: 0.062 mg/L (≈ 0.191 µM)
